The source of these data is PMC7175122 (Biomolecules, 2020).

pIC50: −log10 of the molar value. “Also recorded” adds a separate entry of the source. Like-named read-outs stand apart in the source and are kept apart here. Square brackets hold non-standard residues; d marks the D form. Side chains are listed from the residue outwards. Peptide text beside a SMILES is read from it. hArg = N=C(N)NCCCC[C@H](N)C(=O)O; ΔPro = O=C(O)[C@@H]1C=CCN1; Dab = NCC[C@H](N)C(=O)O; Dhp = not defined here

In series [1] the target is T1, VEGF-A165/NRP-1 complex (Homo sapiens, UniProt O14786).
T1 construct: purchased R&D Systems (Minneapolis, MN, USA)
T1 sequence (O14786 22-641 limits assumed): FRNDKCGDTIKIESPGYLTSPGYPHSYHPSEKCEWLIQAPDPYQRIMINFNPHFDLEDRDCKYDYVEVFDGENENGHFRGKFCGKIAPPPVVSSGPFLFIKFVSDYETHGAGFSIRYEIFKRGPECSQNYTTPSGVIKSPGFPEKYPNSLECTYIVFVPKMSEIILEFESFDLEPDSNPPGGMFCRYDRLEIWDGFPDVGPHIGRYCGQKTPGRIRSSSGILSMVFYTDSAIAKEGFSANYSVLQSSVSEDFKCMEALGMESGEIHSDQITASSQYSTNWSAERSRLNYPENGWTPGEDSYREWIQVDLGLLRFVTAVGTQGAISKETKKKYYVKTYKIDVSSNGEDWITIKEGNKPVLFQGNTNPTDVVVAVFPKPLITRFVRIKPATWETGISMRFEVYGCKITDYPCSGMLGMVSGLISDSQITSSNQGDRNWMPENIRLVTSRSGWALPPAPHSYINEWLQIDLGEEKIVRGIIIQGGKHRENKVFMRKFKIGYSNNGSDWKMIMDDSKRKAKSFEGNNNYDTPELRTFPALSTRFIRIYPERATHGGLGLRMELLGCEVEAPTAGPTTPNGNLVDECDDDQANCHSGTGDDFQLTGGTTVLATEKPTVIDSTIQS
Kind of series: Competitive NRP-1-binding assay (bt-VEGF-A165/NRP-1 complex inhibition, chemiluminescent detection). The settings on record: for pIC50 / IC50: inhibition of VEGF-A165/NRP-1 complex formation; for pIC50: read-out: IC50; for inhibition values (plateau): 1–50 μM concentrations, IC50 not calculable in this range; for IC50: mean ± SEM, read-out: logIC50 (converted). Here is the method: The method used was similar to the one previously described. The first step was a coating of a 96-well plate using 100 μL (200 ng/well) of recombinant human NRP-1. After overnight incubation at 4 °C, nonspecific binding was blocked with 0.5% BSA in PBS. Next, 50 µL of peptide in PBS in selected concentrations and 50 µL of human (bt)-VEGF-A165 (400 ng/mL) in PBS containing 4 µg/mL of heparin were added and incubated for 2 h at r.t. After washing, wells were treated with streptavidin-horseradish peroxidase conjugate in PBS (1:8000) for 45 min. Final washing was followed by an addition of 100 µL chemiluminescent substrate and the immediate quantitative determination of the luminescence. Wells incubated with (bt)-VEGF-A165 only served as a positive control (P), while not-coated by NRP-1 wells were used for a negative control (NS). Percentages of inhibition were calculated by the following formula:100% − [[(S − NS)/(P − NS)]·100%],(1) where S is the signal intensity obtained from wells incubated with the peptide. Presented data are the mean ± SEM of two or three independent experiments, each performed in triplicate.
IC50 of the peptides were calculated using the nonlinear regression function with Prism (GraphPad Software, San Diego, CA, USA). The same software was used to calculate and present the plasma stability assay results. All results are represented as an average, with error bars indicating ± SEM.
Peptides were tested by the bt-VEGF-A165/NRP-1 complex inhibition assay with chemiluminescent detection, as previously described. […] The amino acid was inserted in the same places as the Cys-Asp fragment previously. Compounds 3 and 4 were tested by the bt-VEGF-A165/NRP-1 inhibition assay at 1–50 μM concentrations.
2. Dose-response curves of synthesized peptides
The concentration-dependent inhibitory dose-curve data were plotted as the percentage inhibition normalized to the controls, with the applied curve fits calculated using GraphPad Prism (Version 5.01, GraphPad software). Data are presented as log(inhibitor) versus a normalized response-variable slope. Error bars represent means +/- SEM for two or three independent experiments. […]

The nature of series [2]: Degradation assay in human plasma (enzymatic stability). The series is classed as in vitro ADME. Conditions: human blood plasma, 37 °C; for remaining at 24 h: after 24 h, read-out: initial concentration still present in plasma; for remaining at 96 h: after 96 h, read-out: concentration remaining in plasma. As to the method:
This assay was performed according to the method described previously. First, human blood plasma was preactivated in an Eppendorf ThermoMixer® Comfort (Hamburg, Germany) for 20 min at 37 °C (350 rpm). Next, the peptide dissolved in water (6 mg/mL; ~5 μmol/mL) was mixed with human plasma (~1 μmol/mL final concentration) and incubated in the same conditions. One-hundred microliters of the mixture was collected in 1.5-mL microtubes at selected time intervals (0–96 h), followed by protein precipitation by adding 100 μL of 98% ethanol and by vortexing for 1 min (3000 min^−1). Samples were centrifuged for 10 min at 4 °C (11,000 g), and 100 μL of supernatant was collected and lyophilized. Reconstituted in 100 μL of water, samples were subjected to RP-HPLC analysis. LC-MS analyses with a Shimadzu LCMS-2020 mass spectrometer (Duisburg, Germany) were done for selected samples. A detailed description of the method can be found in the Supplementary Materials. All results are represented as an average, with error bars indicating ± SEM determined from the results of two independent experiments performed in duplicates.
Compounds were incubated in human plasma at 37 °C, and at selected time intervals, samples were analyzed using RP-HPLC and LC-MS, as described previously. […] After 24 h, almost 50% of each compound’s initial concentration was still present in the plasma. Following the next time intervals, we observed a significant degradation of peptide 3 (~20% after 96 h) but a much slower decrease in the concentration of peptide 4 (~40% after 96 h). This is probably due to the slower detachment of Cys residue from the side chain (peptide 4) compared to detachment from the main chain (peptide 3). […] However, unmodified peptides tend to have short half-lives counted rather in minutes, e.g., ghrelin [48] and endomorphins, and modifications lead to extending this time often to only a few hours.
Table S4. Confidence intervals (95%) determined for calculated IC50.
Compound IC50 (µM) 95% Confidence Intervals
3. Analytical data of serum degradation
Analysis of plasma degradation products was carried out by HPLC-ESI-Q-MS with a Prominence HPLC system (binary pump system LC-20AD and autosampler SIL-20AC HT coupled to a SPD-20A UV detector and LCMS-2020 quadrupole mass detector).
Chromatographic separation was achieved on a Phenomenex Jupiter Proteo C12 column (250 × 4.6 mm) at 35 °C. Mobile phases consisted of H2O:TFA (99.95:0.05 v/v, phase A) and ACN:TFA (99.95:0.05 v/v, phase B) at a flow rate of 1.2 mL/min. […]
Elution was performed with a gradient as follows: t = 25 min., 0%–25% B. The injection volume was 15 μl. UV spectra were recorded at 190 nm.
The electrospray ionization (ESI) was operated in positive mode. […]

Series [3] has as its target T1, VEGF-A165/NRP-1 complex. Conditions: cited from earlier work; for inhibition of the formation of the VEGF-A165/NRP-1 complex: concentration of 100 μM.
The nature of a further series: human blood plasma. The settings on record: 37 °C, up to 96 h.
The nature of a further series: PBS. The settings on record: 22 °C, up to 4 h.
On the set-up of series [4]: method as in PMID 30881620. Conditions: human plasma; cited from earlier work.
The mark [5] stands for this setting: reference peptide, read-out: RP IC50.

Broadly, the pIC50 is −log10 of the IC50, conventionally taken in molar units. For the compound `N=C(N)NCCCC[C@H](N)C(=O)NCCCC[C@H](NC(=O)[C@H](CC(=O)O)NC(=O)[C@@H](N)CS)C(=O)N[C@@H](CCN)C(=O)N1CC=C[C@H]1C(=O)N[C@@H](CCCNC(=N)N)C(=O)O` [Compound 1, H-Cys-Asp-Lys(hArg)-Dab-Dhp-Arg-OH] (H-CDK(hArg)[Dab][ΔPro]R-OH), at VEGF-A165/NRP-1 complex [1], the pIC50 was 5.60.

Consider `N=C(N)NCCCC[C@H](NC(=O)[C@H](CC(=O)O)NC(=O)[C@@H](N)CS)C(=O)NCCCC[C@H](N)C(=O)N[C@@H](CCN)C(=O)N1CC=C[C@H]1C(=O)N[C@@H](CCCNC(=N)N)C(=O)O` [Compound 2, H-Lys(Cys-Asp-hArg)-Dab-Dhp-Arg-OH] (H-K([hArg-Asp-Cys])[Dab][ΔPro]R-OH), for which the pIC50 at VEGF-A165/NRP-1 complex [1] was 5.70.

For the compound `N=C(N)NCCCC[C@H](N)C(=O)NCCCC[C@H](NC(=O)[C@@H](N)CS)C(=O)N[C@@H](CCN)C(=O)N1CC=C[C@H]1C(=O)N[C@@H](CCCNC(=N)N)C(=O)O` [Compound 3, H-Cys-Lys(hArg)-Dab-Dhp-Arg-OH] (H-CK(hArg)[Dab][ΔPro]R-OH), at VEGF-A165/NRP-1 complex [1], the “inhibition values (plateau)” value was ~ 80% and the IC50 was 0.0834 µM. Also, in series [2], the remaining at 24 h was ~50% and the remaining at 96 h was ~20%.

As for `N=C(N)NCCCC[C@H](NC(=O)[C@@H](N)CS)C(=O)NCCCC[C@H](N)C(=O)N[C@@H](CCN)C(=O)N1CC=C[C@H]1C(=O)N[C@@H](CCCNC(=N)N)C(=O)O` [Compound 4, H-Lys(Cys-hArg)-Dab-Dhp-Arg-OH] (H-K([hArg-Cys])[Dab][ΔPro]R-OH), on VEGF-A165/NRP-1 complex [1], the “inhibition values (plateau)” value is ~ 80% and the IC50 is 0.064 µM. In series [2], the remaining at 24 h was ~50% and the remaining at 96 h was ~40%.

In the case of `C[C@@H](O)[C@H](N)C(=O)N[C@@H](CCCCN)C(=O)N1CCC[C@H]1C(=O)N[C@@H](CCCNC(=N)N)C(=O)O` [Tuftsin, TKPR, reference compound] (H-TKPR-OH; N-terminus and C-terminus assumed), the inhibition at 100 µM on VEGF-A165/NRP-1 complex [1] (100 µM concentration, read-out: percentage inhibitory effect) is 46%. The pIC50 at VEGF-A165/NRP-1 complex [1] was 4.00; on VEGF-A165/NRP-1 complex [3] (setting [5]) it was ≤ 4.00.

On to CDKPRR, for which, at VEGF-A165/NRP-1 complex [3], the “inhibition of the formation of the VEGF-A165/NRP-1 complex” value was ~100%.

For the compound “DKPRR [CDKPRR lacking the N-terminal Cys]”, the “percentage of inhibition of VEGF-A165/NRP-1 interaction” value at VEGF-A165/NRP-1 complex [3] (at 100 µM) is reported as ~ 20%. In the series with VEGF-A165/NRP-1 complex [3] (setting [5]), the pIC50 is < 4.00.

As to “ERTCDKPRR [fragment of the VEGF-A165 domain encoded by exons 7 and 8]”, in the series with VEGF-A165/NRP-1 complex [3], the “inhibition of the formation of the VEGF-A165/NRP-1 complex” value is reported as ~100%.

As to H-CKPRR-OH [Compound 7, CKPRR], the IC50 on VEGF-A165/NRP-1 complex [1] is 0.187 µM.

As for H-CLPPR-OH [Compound 5, CLPPR], on VEGF-A165/NRP-1 complex [1], the pIC50 is 4.94. Moreover, the “fold decrease of IC50 compared to the A7R peptide” value on VEGF-A165/NRP-1 complex [1] (vs A7R) is given as “seven-fold”.

Regarding H-CTKPR-OH [Compound 6, CTKPR], on VEGF-A165/NRP-1 complex [1], the pIC50 was 5.03. Also, the “fold increase of ligand affinity compared to tuftsin” value at VEGF-A165/NRP-1 complex [1] (vs tuftsin) is listed as “more than 11 fold”.

In the case of “H-Cys-Lys(hArg)-Dab-Dhp-Arg-OH (H-CK(hArg)[Dab][ΔPro]R-OH; SMILES N=C(N)NCCCC[C@H](N)C(=O)NCCCC[C@H](NC(=O)[C@@H](N)CS)C(=O)N[C@@H](CCN)C(=O)N1CC=C[C@H]1C(=O)N[C@@H](CCCNC(=N)N)C(=O)O)”, in “human blood plasma”, the cleaved bond result is “Cys-Lys, first_seen; also recorded: hArg-Lys; also recorded: Lys-Dab”. In addition, the fragment found result in “PBS” is “dimer, minor, 4 h”.

For the compound “H-Lys(Cys-hArg)-Dab-Dhp-Arg-OH (H-K([hArg-Cys])[Dab][ΔPro]R-OH)”, in “human blood plasma”, the cleaved bond entry was “Cys-hArg, first_seen; also recorded: hArg-Lys; also recorded: Lys-Dab”. Also, in the series “PBS”, the fragment found entry is given as “dimer, minor, 4 h”.

With “H-Lys(hArg)-Dab-Dhp-Arg-OH (H-K(hArg)[Dab][Dhp]R-OH; reading uncertain; also: printed as H-Lys(hArg)-Dab-Dhp-Arg-OH) [PP, parent branched peptide, previously published NRP-1 ligand]”, the pIC50 in the series with VEGF-A165/NRP-1 complex [3] (parent peptide, data already published, read-out: IC50) is 5.37.

Take H-Lys(hArg)-Dab-Dhp-Arg-OH [PP]: the t1/2 in series [4] is 51 h.

As to LPPR, the “share of A7R inhibition of NRP-1 activation by VEGF-A165 for which the sequence is responsible” value on VEGF-A165/NRP-1 complex [3] is 75%.
